Experimental data reported in patent US10117853B2, “Cyclic amine derivative and pharmaceutical use thereof” (Toray Industries, Inc., priority 2015, dated 2018).
Where a name gives a salt, the structure may show the parent alone.

Tests used:
[1] = test system: mouse partial sciatic nerve ligation model; experiment: Mouse partial sciatic nerve ligation model (Seltzer model), von Frey test; assay type: in vivo, Crl: CD1 (ICR) mice; details: oral administration seven days after ligation; 0.01 to 10 mg/kg depending on compound, pregabalin 10 mg/kg; 1, 2, 3 hours after administration; versus partial sciatic nerve ligation+distilled water group
Protocol: Using a partial sciatic nerve ligation model (Seltzer model) in mice by which neuropathic pain can be evaluated, the analgesic action of a cyclic amine derivative (I) or a pharmacologically acceptable salt thereof was investigated.
The mouse partial sciatic nerve ligation model was prepared in accordance with the method of Seltzer et al. (Malmberg et al., Pain, vol. 76, p. 215-222, 1998).
Crl: CD1 (ICR) mice (5 weeks old, male; from CHARLES RIVER LABORATORIES JAPAN, INC.) was anesthetized with sodium pentobarbital (70 mg/kg, intraperitoneal administration). The sciatic nerve at the femoral region of the right hind paw of each mouse was exposed and triply ligated tightly with silk suture of 8-0 (from NATSUME […]., LTD.) under a stereomicroscope so that only half thickness of the nerve was trapped in the ligature. A group of mice thus treated was designated as a partial sciatic nerve ligation group. A group of mice whose sciatic nerve was just exposed and not ligated was designated as a sham surgery group.
Evaluation of neuropathic pain (hereinafter referred to as von Frey test) was performed as follows. Mice were conditioned for at least one hour in an acrylic cage for measurement (from NATSUME […]. LTD.) placed on a wire net. Thereafter, using a filament (from North Coast Medical or neuroscience) which exerted a pressure of 0.16 g, the mice were subjected to mechanical tactile stimulus by applying the filament to the plantar surface of the right hind paw 3 times, each for 3 seconds, with an interval of 3 seconds.
Seven days after the sciatic nerve ligation surgery, the compound of Example 4, 6, 8, 10, 12, 14, 16, 18 or 20 (1 to 10 mg/kg for each of the compounds of Examples 4, 6 and 8, 0.1 to 10 mg/kg for each of the compounds of Examples 16 and 18, 0.01 to 10 mg/kg for each of the compounds of Examples 10, 12 and 14; and 0.1 to 1 mg/kg for the compound of Example 20) or pregabalin as a positive control (10 mg/kg; KEMPROTEC) was dissolved in distilled water and orally administered to mice of the partial sciatic nerve ligation group. The groups of the partial sciatic nerve ligation mice to which the compound of Example 4, 6, 8, 10, 12, 14, 16, 18 or 20 was administered were designated as a “partial sciatic nerve ligation+the compound of Example 4” group; a “partial sciatic nerve ligation+the compound of Example 6” group; a “partial sciatic nerve ligation+the compound of Example 8” group; a “partial sciatic nerve ligation+the compound of Example 10” group; a “partial sciatic nerve ligation+the compound of Example 12” group; a “partial sciatic nerve ligation+the compound of Example 14” group; a “partial sciatic nerve ligation+the compound of Example 16” group; a “partial sciatic nerve ligation+the compound of Example 18” group; and a “partial sciatic nerve ligation+the compound of Example 20” group, respectively. The partial sciatic nerve ligation mouse group to which pregabalin was administered, was designated as a “partial sciatic nerve ligation+pregabalin” group. Also, the partial sciatic nerve ligation mouse group to which distilled water was orally administered, was designated as a “partial sciatic nerve ligation+distilled water” group. The sham surgery mouse group to which distilled water was orally administered was designated as a “sham surgery+distilled water” group.
The von Frey test was carried out before oral administration of a test compound (pre-value), one hour, two hours and three hours after the oral administration of a test compound.
In the figures, the vertical axis represents the total score (mean value±standard error; n=5 to 6 in FIGS. 1 to 9) in the von Frey test. The higher numerical value indicates stronger pain. The horizontal axis represents time (hr) after administration of a test compound. […]

[2] = test system: fibromyalgia syndrome model rats; experiment: Fibromyalgia syndrome model in rats (acidic saline), allodynia by von Frey filament; assay type: in vivo, Crl: CD(SD) rat; details: oral administration; Example 6 10 to 100 mg/kg, Example 18 1 to 100 mg/kg, pregabalin 10 mg/kg; 1 and 3 hours after administration; versus acidic saline+distilled water group
Text: Using a fibromyalgia syndrome model in rats by which fibromyalgia syndrome can be evaluated, the analgesic action of a cyclic amine derivative (I) or a pharmacologically acceptable salt thereof was investigated.
To prepare a fibromyalgia syndrome model rat (Sluka et al., Journal of Pharmacology and Experimental Therapeutics, vol. 302, p. 1146-1150, 2002; Nagakura et al., Pain, vol. 146, p. 26-33, 2009; Sluka et al., Pain, vol. 146, p. 3-4, 2009), which is generally employed widely in basic research for fibromyalgia syndrome, acidic saline (100 μL) adjusted to pH4.0 was intramuscularly injected to the gastrocnemius muscle of the right hind paw of Crl: CD(SD) rat (6 to 7 weeks old, male; from CHARLES RIVER LABORATORIES JAPAN, INC.) under continuous inhalation anesthesia with isoflurane, twice (once in each day of Day 1 and Day 6, wherein Day 1 was the date on which the acidic saline was initially administrated). The rats thus prepared were raised in a breeding room controlled at an indoor temperature of 21 to 25° C. and an indoor humidity of 40 to 70% under the conditions of voluntary intake of food and water. In the same manner, rats to which physiological saline in place of acidic saline was intramuscularly injected were raised. The rats thus raised and not afflicted with fibromyalgia syndrome (“physiological saline+distilled water” group in FIG. 10 or 11) were also used in the experiment.
Seven days after the initial administration of acidic saline, allodynia in each rat was measured. […]
The compounds of Examples 6 and 18 (10 to 100 mg/kg for the compound of Example 6; 1 to 100 mg/kg for the compound of Example 18) were separately dissolved in distilled water and orally administered to fibromyalgia model rats (“acidic saline+the compound of Example 6” in FIG. 10 and “acidic saline+the compound of Example 18” in FIG. 11). […] In one hour and three hours after the oral administration, allodynia in individual rats was measured to evaluate an analgesic action. […]

Row | SMILES | analgesic action, total score in the von Frey test [1] | allodynia, 50% response threshold (mean value of the right hind paw and the left hind paw) [2]
1 | CCCCCCOC(=O)CCn1ccnc1CCC(=O)N1CC[C@H](N(C)C)C1 [Example 4, n-hexyl (S)-3-(2-(3-(3-(dimethylamino)pyrrolidin-1-yl)-3-oxopropyl)-1H-imidazol-1-yl)propanoate hydrochloride] | statistically significant analgesic action | –
2 | CCCCCCCOC(=O)CCn1ccnc1CCC(=O)N1CC[C@H](N(C)C)C1 [Example 6, n-heptyl (S)-3-(2-(3-(3-(dimethylamino)pyrrolidin-1-yl)-3-oxopropyl)-1H-imidazol-1-yl)propanote hydrochloride] | statistically significant analgesic action | statistically significantly improved
3 | CCCCCCCCOC(=O)CCn1ccnc1CCC(=O)N1CC[C@H](N(C)C)C1 [Example 8, n-octyl (S)-3-(2-(3-(3-(dimethylamino)pyrrolidin-1-yl)-3-oxopropyl)-1H-imidazol-1-yl)propanoate hydrochloride] | statistically significant analgesic action | –
4 | CCCOC(=O)Cn1ccnc1CCC(=O)N1CCC(N2CCOCC2)CC1 [Example 10, n-propyl 2-(2-(3-(4-morpholinopiperidin-1-yl)-3-oxopropyl)-1H-imidazol-1-yl)acetate hydrochloride] | statistically significant analgesic action | –
5 | CCCCOC(=O)Cn1ccnc1CCC(=O)N1CCC(N2CCOCC2)CC1 [Example 12, n-butyl 2-(2-(3-(4-morpholinopiperidin-1-yl)-3-oxopropyl)-1H-imidazol-1-yl)acetate hydrochloride] | statistically significant analgesic action | –
6 | CCCCCOC(=O)Cn1ccnc1CCC(=O)N1CCC(N2CCOCC2)CC1 [Example 14, n-pentyl 2-(2-(3-(4-morpholinopiperidin-1-yl)-3-oxopropyl)-1H-imidazol-1-yl)acetate hydrochloride] | statistically significant analgesic action | –
7 | CCCCCCOC(=O)Cn1ccnc1CCC(=O)N1CCC(N2CCOCC2)CC1 [Example 16, n-hexyl 2-(2-(3-(4-morpholinopiperidin-1-yl)-3-oxopropyl)-1H-imidazol-1-yl)acetate hydrochloride] | statistically significant analgesic action | –
8 | CCCCCCCOC(=O)Cn1ccnc1CCC(=O)N1CCC(N2CCOCC2)CC1 [Example 18, n-heptyl 2-(2-(3-(4-morpholinopiperidin-1-yl)-3-oxopropyl)-1H-imidazol-1-yl)acetate hydrochloride] | statistically significant analgesic action | statistically significantly improved
9 | CCCCCCCCOC(=O)Cn1ccnc1CCC(=O)N1CCC(N2CCOCC2)CC1 [Example 20, n-octyl 2-(2-(3-(4-morpholinopiperidin-1-yl)-3-oxopropyl)-1H-imidazol-1-yl)acetate hydrochloride] | statistically significant analgesic action | –
10 | CC(C)C[C@H](CN)CC(=O)O [pregabalin, reference compound] | statistically significant analgesic action | statistically significantly improved
